Results as given in US7294689B2, “Agonist polypeptide of receptor for Zot and Zonulin” (University of Maryland, Baltimore, priority 2003, dated 2007).
“Also recorded” adds a separate entry of the source.

B1: MCP-II: mast cell protease II, serine proteinase of mucosal mast cells (protein, UniProt P00770 21-247, looked up)
Mast cell protease 2: IIGGVESIPHSRPYMAHLDIVTEKGLRVICGGFLISRQFVLTAAHCKGREITVILGAHDVRKRESTQQKIKVEKQIIHESYNSVPNLHDIMLLKLEKKVELTPAVNVVPLPSPSDFIHPGAMCWAAGWGKTGVRDPTSYTLREVELRIMDEKACVDYRYYEYKFQVCVGSPTTLRAAFMGDSGGPLLCAGVAHGIVSYGHPDAKPPAIFTRVSTYVPWINAVINTSS

How the values were obtained:
[1] = tested on: intestinal tissues of wild-type mice; assay: Intestinal TEER in wild-type mice; conditions: vs control tissues
Caco2 cell monolayers = assay: PAR-2 AP-induced actin rearrangement in Caco2 cell monolayers; type: cell-based, human; conditions: 10^−6M, vs BSA-treated monolayers
Description: FIGS. 5A to 5D. Actin cytoskeleton arrangement in Caco2 cells exposed to PAR2-AP (FIG. 5A), BSA (FIG. 5B), PAR2-AP+FZI/0 (FIG. 5C), or PAR-2 AP+FZI/1 (FIG. 5D).
Effect of the Zot/zonulin inhibitor FZI/0 on PAR-2 AP-induced actin rearrangement. It has been recently reported that activation of PAR-2 receptor by PAR-2 AP promotes cytoskeletal reorganization (53). To establish whether this effect can be prevented by the synthetic Zot/zonulin peptide inhibitor, FZI/0, immunofluorescence studies were conducted in Caco2 cell monolayers. […] These cytoskeletal changes were blocked by the pre-incubation with 2×10^−6M FZI/0 (FIG. 5C), but not by the scrambled peptide FZI/1 (FIG. 5D). Therefore, PAR-2 AP and FZI/0 appear to bind to the identical structure on enterocytes.

PAR-2 = assay: FZI/0-PAR-2 AP competitive binding experiments in Caco2 cells; design: species or system human; conditions: FITC-FZI/0 2×10^−8M, competitor 100× excess (10^−6M)
Protocol: FIGS. 4A-4D. FZI/0-PAR-2 AP competitive binding experiments.
FZI/0—PAR-2 AP competitive binding experiments. The activation of PAR-2 requires binding of either its tryptase-generated, cleaved N-terminal portion or the synthetic peptide equivalent, PAR-2 AP, to the receptor's extracellular loop 2 (ECL2) (47). To establish whether FZI/0 binds to the same receptor domain, competitive binding experiments were conducted in Caco2 cells. Cell monolayers were incubated with FITC-FZI/0 (2×10^−8M)) either in the presence of an excess of PAR-2 AP (10^−6M) or a scrambled peptide and then analyzed by fluorescence microscopy.

[2] = tested on: mouse intestinal small intestine; assay: Microsnapwell assay, mouse small intestine TEER; conditions: luminal addition; PAR-2 AP 10^−6M, MCP-II 10^−8M; vs untreated tissues

Molecule | Effect on intestinal TEER [1] | Actin cytoskeleton arrangement (stress fibers) (Caco2 cell monolayers) | Displacement of FITC-FZI/0 by excess competitor (PAR-2) | Displacement of FITC-FZI/0 by excess competitor (PAR-2; listed as PAR2-AP) | Effect on TEER [2]
SLIGRL [PAR-2 AP] | significant drops in TEER; also recorded: comparable drop in intestinal resistance | dissolution of stress fibers | significant reduction of FZI/0 immunofluorescent staining particles | displaced FZI/0 | significant drops in TEER; also recorded: decreased TEER
B1 | – | – | – | – | significant drops in TEER; also recorded: decreased TEER
